These compounds were tested on Onchocerca gutturosa adult male worms (assay: Onchocerciasis in vitro screening model Onchocerca gutturosa (worm motility score and MTT/formazan colorimetry)). Details: Onchocerca gutturosa, read-out: O. gutt Act class.
Description: Onchocerciasis: In Vitro Screening Model Onchocerca gutturosa
Parasite and cell cultures. Onchocerca gutturosa adult male worms were obtained by dissection from the nuchal ligament connective tissues of naturally infected cattle, from Gambia, W Africa.
The worms were maintained for at least 24 h in culture before use in Eagles Minimum Essential Medium with Earl's Salts (Gibco, UK)+10% heat inactivated new born calf serum (Gibco, UK)+antibiotic cover of 200 units/ml penicillin, 200 μg/ml streptomycin and 0.5 μg/ml amphotericin B (Sigma, UK). Only normally active specimens were used in the test. All cultures and assays were conducted at 37° C. under an atmosphere of 5% CO2 in air.
Drug sensitivity assays. Compound stock solutions were prepared in 100% DMSO unless otherwise indicated and diluted into the medium. Any unused compound stocks were stored at −20° C. Assays were performed in sterile 24-well (2 ml) plates (Falcon, UK).
Worms were then transferred individually to each well of the plate using fine forceps. Worm viability was assessed using 2 parameters: • The measurement of mean worm motility scores on a scale of 0 (immotile) to 10 (maximum) every 24 h, terminating at 120 h, using an Olympus inverted microscope. • The biochemical evaluation of worm viability using MTT/formazan colorimetry. The MTT assay was carried out after the last motility reading (120 h). Single intact worms were placed in each well of a 48-well plate (Falcon, UK) containing 0.5 ml of a solution consisting of 0.5 mg/ml MTT (Sigma UK) in phosphate buffered saline, and then incubated for 30 min at 37° C. The worms were removed, blotted carefully, and individually transferred to separate wells of a 96-well microtiter plate, each containing 200 μl of DMSO to solubilize the formazan. After 1 h the plate was gently agitated to disperse the color evenly and the absorbance value (optical density) of the resulting formazan solution was determined at 490 nm using a multi-well scanning spectrophotometer (Elisa-reader, Dynatech, UK). Inhibition of formazan formation was correlated with worm damage or death.
Primary screen. New compounds were usually tested at 1.25×10^−5 M. Also expressed in μg/ml.
Secondary screen. […] Serial 1 in 4 drug dilutions was carried out to find activity endpoint and EC50 values for motility reduction and inhibition of formazan formation were produced. EC50 values were determined using Excel or Origin V7 scientific graphing and data analysis software.

**Q.** With Oc1ccc(Nc2nc(-c3ccccn3)cs2)nc1 [Example 122, 6-(4-(pyridin-2-yl)thiazol-2-ylamino) pyridin-3-ol] as the compound, how does the IC50 read?
**A.** 500 to 5000 nM

**Q.** How did the IC50 turn out when C[C@@H]1CN(Cc2sc(Nc3cc(C(=O)NCC(F)(F)F)ccn3)nc2-c2ccccn2)C[C@H](C)O1 [Example 188, 2-(5-(((2S,6R)-2,6-dimethyl-morpholino)methyl)-4-(pyridin-2-yl)thiazol-2-ylamino)-N-(2,2,2-trifluoroethyl) isonicotinamide] was run?
**A.** < 200 nM

**Q.** With O=C(NC1CCCC1)c1sc(Nc2cc(C(F)(F)F)ccn2)nc1-c1ccccn1 [Example 204, N-cyclopentyl-4-(pyridin-2-yl)-2-(4-(trifluoromethyl)pyridin-2-ylamino) thiazole-5-carboxamide] as the compound, how does the IC50 read?
**A.** 500 to 5000 nM

**Q.** Which IC50 does the source give for FC(F)(F)c1ccnc(Nc2nc(-c3ccccn3)c(CN3CCCC3)s2)c1 [Example 197, 4-(pyridin-2-yl)-5-(pyrrolidin-1-ylmethyl)-N-(4-(trifluoromethyl)pyridin-2-yl)thiazol-2-amine] here?
**A.** 500 to 5000 nM

**Q.** With COc1ccc(-c2cc(Nc3cc(OC(C)C)ccn3)n(C)n2)nc1 [Example 233, 4-isopropoxy-N-(3-(5-methoxypyridin-2-yl)-1-methyl-1H-pyrazol-5-yl)pyridin-2-amine] as the compound, how does the IC50 read?
**A.** 500 to 5000 nM

**Q.** With CCOc1cccc(-c2csc(Nc3cc(C)ccn3)n2)n1 [Example 78, 4-(6-ethoxypyridin-2-yl)-N-(4-methylpyridin-2-yl)thiazol-2-amine] as the compound, how does the IC50 read?
**A.** 500 to 5000 nM

**Q.** O=C(c1sc(Nc2cc(C(F)(F)F)ccn2)nc1-c1ccccn1)N1CCCCC1 [Example 200, piperidin-1-yl(4-(pyridin-2-yl)-2-(4-(trifluoromethyl)pyridin-2-ylamino)thiazol-5-yl)methanone] was tested. Which IC50 did it give?
**A.** 500 to 5000 nM

**Q.** Which IC50 does the source give for CCOc1ccc(-c2csc(Nc3cccc(C)n3)n2)nc1 [Example 90, 4-(5-ethoxypyridin-2-yl)-N-(6-methylpyridin-2-yl)thiazol-2-amine] here?
**A.** < 200 nM

**Q.** For Cc1ccnc(Nc2nc(-c3ncccc3-c3ccccc3)cs2)c1 [Example 103, N-(4-methylpyridin-2-yl)-4-(3-phenylpyridin-2-yl)thiazol-2-amine], which IC50 is on record?
**A.** < 200 nM

**Q.** For c1ccc(-c2ccnc(Nc3nc(-c4ccccn4)cs3)c2)cc1 [Example 126, N-(4-phenylpyridin-2-yl)-4-(pyridin-2-yl)thiazol-2-amine], which IC50 is on record?
**A.** < 200 nM

**Q.** With CC(C)(O)C(=O)N1CCN(c2ccc(Nc3nc(-c4ccccn4)cs3)nc2)CC1 [Example 156, 2-hydroxy-2-methyl-1-(4-(6-(4-(pyridin-2-yl)thiazol-2-ylamino)pyridin-3-yl)piperazin-1-yl)propan-1-one] as the compound, how does the IC50 read?
**A.** < 200 nM

**Q.** How did the IC50 turn out when CN1CCN(C(=O)c2sc(Nc3cc(C(F)(F)F)ccn3)nc2-c2ccccn2)CC1 [Example 191, (4-methylpiperazin-1-yl)(4-(pyridin-2-yl)-2-(4-(trifluoromethyl)pyridin-2-ylamino)thiazol-5-yl)methanone] was run?
**A.** 500 to 5000 nM

**Q.** For O=C(NCC1CCOCC1)c1sc(Nc2cc(C(F)(F)F)ccn2)nc1-c1ccccn1 [Example 203, 4-(pyridin-2-yl)-N-((tetrahydro-2H-pyran-4-yl)methyl)-2-(4-(trifluoromethyl)pyridin-2-ylamino) thiazole-5-carboxamide], which IC50 is on record?
**A.** 500 to 5000 nM

**Q.** Which IC50 does the source give for c1ccc(-c2csc(Nc3cc(-c4cccnn4)ccn3)n2)nc1 [Example 169, N-(4-(pyridazin-3-yl)pyridin-2-yl)-4-(pyridin-2-yl)thiazol-2-amine] here?
**A.** < 200 nM

**Q.** For c1ccc(-c2csc(Nc3cc4[nH]ccc4cn3)n2)nc1 [Example 136, 4-(pyridin-2-yl)-N-(1H-pyrrolo [3,2-c]pyridin-6-yl)thiazol-2-amine], which IC50 is on record?
**A.** < 200 nM

**Q.** With CCOc1cccnc1-c1csc(Nc2ncccc2C)n1 [Example 77, 4-(3-ethoxypyridin-2-yl)-N-(3-methylpyridin-2-yl)thiazol-2-amine] as the compound, how does the IC50 read?
**A.** < 200 nM

**Q.** Which IC50 does the source give for Cc1ccnc(Nc2nc(-c3cc(-c4ccccc4)ccn3)cs2)c1 [Example 101, N-(4-methylpyridin-2-yl)-4-(4-phenylpyridin-2-yl)thiazol-2-amine] here?
**A.** < 200 nM

**Q.** How did the IC50 turn out when c1ccc(-c2csc(Nc3ccc4cc[nH]c4n3)n2)nc1 [Example 134, 4-(pyridin-2-yl)-N-(1H-pyrrolo [2,3-b]pyridin-6-yl)thiazol-2-amine] was run?
**A.** < 200 nM

**Q.** With COc1ccc(-c2cc(Nc3cc(OC(C)C)ccn3)[nH]n2)nc1 [Example 236, 4-isopropoxy-N-(3-(5-methoxypyridin-2-yl)-1H-pyrazol-5-yl)pyridin-2-amine] as the compound, how does the IC50 read?
**A.** 500 to 5000 nM

**Q.** Which IC50 does the source give for c1ccc(-c2ccc(Nc3nc(-c4ccccn4)cs3)nc2)cc1 [Example 221, N-(5-phenylpyridin-2-yl)-4-(pyridin-2-yl)thiazol-2-amine] here?
**A.** < 200 nM

**Q.** For O=C(c1sc(Nc2cc(C(F)(F)F)ccn2)nc1-c1ccccn1)N1CCC2(CC1)OCCO2 [Example 190, (4-(pyridin-2-yl)-2-(4-(trifluoromethyl)pyridin-2-ylamino)thiazol-5-yl)(1,4-dioxa-8-azaspiro[4.5]decan-8-yl)methanone], which IC50 is on record?
**A.** 500 to 5000 nM

**Q.** FC(F)(F)c1cc(Nc2nc(-c3ccccn3)cs2)ncc1Br [Example 140, N-(5-bromo-4-(trifluoro-methyl)pyridin-2-yl)-4-(pyridin-2-yl)thiazol-2-amine] was tested. Which IC50 did it give?
**A.** 500 to 5000 nM

**Q.** For CCOc1ccc(-c2csc(Nc3ccc(C(F)(F)F)cn3)n2)nc1 [Example 95, 4-(5-ethoxypyridin-2-yl)-N-(5-(trifluoromethyl)pyridin-2-yl)thiazol-2-amine], which IC50 is on record?
**A.** < 200 nM

**Q.** Which IC50 does the source give for CCNC(=O)c1ccnc(Nc2nc(-c3ccccn3)cs2)c1 [Example 178, N-ethyl-2-(4-(pyridin-2-yl)thiazol-2-ylamino) isonicotinamide] here?
**A.** < 200 nM

**Q.** How did the IC50 turn out when O=C(c1sc(Nc2cc(C(F)(F)F)ccn2)nc1-c1ccccn1)N1CCN2CCCC2C1 (stereo not drawn) [Example 192, (hexahydro-pyrrolo [1,2-a]pyrazin-2(1H)-yl)(4-(pyridin-2-yl)-2-(4-(trifluoromethyl)pyridin-2-ylamino)thiazol-5-yl)methanone] was run?
**A.** 200 to 500 nM

**Q.** Cc1ccnc(Nc2nc(-c3ccccn3)c(C(C)(C)C)s2)c1 [Example 181, 5-tert-butyl-N-(4-methylpyridin-2-yl)-4-(pyridin-2-yl)thiazol-2-amine] was tested. Which IC50 did it give?
**A.** 200 to 500 nM

**Q.** How did the IC50 turn out when CC(C)Oc1ccc(-c2cnc(Nc3ncccc3N(C)C)o2)nc1 [Example 231, N2-(5-(5-isopropoxy-pyridin-2-yl)oxazol-2-yl)-N3,N3-dimethyl-pyridine-2,3-diamine] was run?
**A.** 500 to 5000 nM

**Q.** CN(C)Cc1sc(Nc2cc(C(F)(F)F)ccn2)nc1-c1ccccn1 [Example 195, 5-((dimethylamino)methyl)-4-(pyridin-2-yl) N-(4-(trifluoromethyl)pyridin-2-yl)thiazol-2-amine] was tested. Which IC50 did it give?
**A.** 200 to 500 nM

**Q.** c1ccc(Nc2nc(-c3ccccn3)cs2)nc1 [Example 214, N,4-di(pyridin-2-yl)thiazol-2-amine] was tested. Which IC50 did it give?
**A.** 200 to 500 nM

**Q.** For Cc1sc(Nc2ccccn2)nc1-c1ccccn1 [Example 227, 5-methyl-N,4-di(pyridin-2-yl)thiazol-2-amine], which IC50 is on record?
**A.** < 200 nM

**Q.** For Cn1cc(-c2ccnc(Nc3nc(-c4ccccn4)cs3)c2)cn1 [Example 161, N-(4-(1-methyl-1H-pyrazol-4-yl)pyridin-2-yl)-4-(pyridin-2-yl)thiazol-2-amine], which IC50 is on record?
**A.** < 200 nM

**Q.** How did the IC50 turn out when O=C(NC1CCC(C(F)(F)F)CC1)c1ccnc(Nc2nc(-c3ccccn3)cs2)c1 (stereo not drawn) [Example 150, 2-(4-(pyridin-2-yl)thiazol-2-ylamino)-N-(4-(trifluoromethyl)cyclohexyl) isonicotinamide] was run?
**A.** < 200 nM

**Q.** Which IC50 does the source give for CC(C)c1ccc(Nc2nc(-c3ccccn3)cs2)nc1 [Example 219, N-(5-isopropylpyridin-2-yl)-4-(pyridin-2-yl)thiazol-2-amine] here?
**A.** < 200 nM

**Q.** How did the IC50 turn out when O=C(NC1CC(F)(F)C1)c1ccnc(Nc2ncc(-c3ccccn3)s2)c1 [Example 179, N-(3,3-difluoro-cyclobutyl)-2-(5-(pyridin-2-yl)thiazol-2-ylamino) isonicotinamide] was run?
**A.** < 200 nM

**Q.** With C[C@@H]1CN(Cc2sc(Nc3cc(C(F)(F)F)ccn3)nc2-c2ccccn2)C[C@H](C)N1 [Example 196, 5-(((3R,5S)-3,5-dimethyl-piperazin-1-yl)methyl)-4-(pyridin-2-yl)-N-(4-(trifluoromethyl)pyridin-2-yl)thiazol-2-amine] as the compound, how does the IC50 read?
**A.** < 200 nM

**Q.** O=C(NCCN1CCCC1)c1ccnc(Nc2nc(-c3ccccn3)cs2)c1 [Example 152, 2-(4-(pyridin-2-yl)thiazol-2-ylamino)-N-(2-(pyrrolidin-1-yl)ethyl) isonicotinamide] was tested. Which IC50 did it give?
**A.** 200 to 500 nM

**Q.** Which IC50 does the source give for Cc1ccnc(Nc2nc(-c3ncccc3C#N)cs2)c1 [Example 92, 2-(2-(4-methylpyridin-2-ylamino)thiazol-4-yl)nicotinonitrile] here?
**A.** < 200 nM

**Q.** With c1ccc(Nc2nc(-c3ccccn3)co2)nc1 [Example 232, N,4-di (pyridin-2-yl)oxazol-2-amine] as the compound, how does the IC50 read?
**A.** < 200 nM

**Q.** CCc1sc(Nc2cccc(C(F)(F)F)n2)nc1-c1ccccn1 [Example 194, 5-ethyl-4-(pyridin-2-yl)-N-(6-(trifluoromethyl)pyridin-2-yl)thiazol-2-amine] was tested. Which IC50 did it give?
**A.** 500 to 5000 nM

**Q.** Which IC50 does the source give for COc1ccc(-c2cnc(Nc3cc(OC(C)C)ccn3)o2)nc1 [Example 228, N-(4-isopropoxy-pyridin-2-yl)-5-(5-methoxypyridin-2-yl)oxazol-2-amine] here?
**A.** 500 to 5000 nM

**Q.** Which IC50 does the source give for COc1ccc(-c2cc(Nc3cc(OC(C)C)ccn3)sn2)nc1 [Example 117, N-(4-isopropoxypyridin-2-yl)-3-(5-methoxypyridin-2-yl)isothiazol-5-amine] here?
**A.** 500 to 5000 nM

**Q.** CCOc1ccc(-c2csc(Nc3ncccc3C3CC3)n2)nc1 [Example 83, N-(3-cyclopropylpyridin-2-yl)-4-(5-ethoxypyridin-2-yl)thiazol-2-amine] was tested. Which IC50 did it give?
**A.** 200 to 500 nM

**Q.** CC(=O)N(C)c1cc(C(F)(F)F)cnc1Nc1nc(-c2cc(OC(C)C)ccn2)cs1 [Example 82, N-(2-(4-(4-isopropoxypyridin-2-yl)thiazol-2-ylamino)-5-(trifluoromethyl)pyridin-3-yl)-N-methylacetamide] was tested. Which IC50 did it give?
**A.** < 200 nM

**Q.** Which IC50 does the source give for c1ccc(-c2ccnc(Nc3ncc(-c4ccccn4)o3)c2)cc1 [Example 229, N-(4-phenylpyridin-2-yl)-5-(pyridin-2-yl)oxazol-2-amine] here?
**A.** 500 to 5000 nM

**Q.** CCOc1cnc(-c2csc(Nc3cc(C)ccn3)n2)c(C)c1 [Example 74, 4-(5-ethoxy-3-methylpyridin-2-yl)-N-(4-methylpyridin-2-yl)thiazol-2-amine] was tested. Which IC50 did it give?
**A.** < 200 nM
